From patent US6365621B1, “Remedies or preventives for intractable epilepsy” (Pharmaceutical Co., Ltd., priority 1998, dated 2002)

Test system: kainate-induced cortical focal seizures
Experiment: Local cerebral glucose metabolism during kainate-induced cortical focal seizures
Type: in vivo, rat
Design: key to Change in local cerebral glucose metabolism rate: →: no change; →↓: decreased in a low degree; ↓: decreased in a moderate degree; ↓↓: decreased in a high degree
Conditions: for Change in local cerebral glucose metabolism rate: 100 mg/kg i.v.
Description: [Method] A cannula was set in the left sensorimotor area of rats, and kinic acid was injected so as to induce seizures through the same manner as described in the experiment of I-1. Subsequently, a nefiracetam solution (100 mg/kg) was intravenously injected into each rat. After 60 minutes, [^14C] deoxyglucose was intravenously injected, and autoradiograms were produced through the same procedure as described in the experiment of I-2. A glucose utilization rate of each intracerabral structure was compared with that of the control group.

Cc1cccc(C)c1NC(=O)CN1CCCC1=O [nefiracetam, N-(2,6-dimethylphenyl)-2-(2-oxo-1-pyrrolidinyl)acetamide]
Hypermetabolism in non-focal sensorimotor area, caudatum-putamen, thalamus and hippocampus in both sides (100 mg/kg i.v. during seizures): hypermetabolism is suppressed remarkably
Change in local cerebral glucose metabolism rate (Amygdala, focal side): →↓
Change in local cerebral glucose metabolism rate (Amygdala, non-focal side): →↓
Change in local cerebral glucose metabolism rate (Brain stem reticular formation, focal side): →↓
Change in local cerebral glucose metabolism rate (Brain stem reticular formation, non-focal side): →↓
Change in local cerebral glucose metabolism rate (Candatum-putamen, focal side): ↓
Change in local cerebral glucose metabolism rate (Candatum-putamen, non-focal side): ↓↓
Change in local cerebral glucose metabolism rate (Cerebellar cortex, focal side): →
Change in local cerebral glucose metabolism rate (Cerebellar cortex, non-focal side): →
Change in local cerebral glucose metabolism rate (Corpus callosum, focal side): →
Change in local cerebral glucose metabolism rate (Corpus callosum, non-focal side): →
Change in local cerebral glucose metabolism rate (Frontal lobe cortex, focal side): →↓
Change in local cerebral glucose metabolism rate (Frontal lobe cortex, non-focal side): ↓
Change in local cerebral glucose metabolism rate (Hypothalamaus, focal side): ↓
Change in local cerebral glucose metabolism rate (Hypothalamaus, non-focal side): ↓
Change in local cerebral glucose metabolism rate (Occipital lobe cortex, focal side): →↓
Change in local cerebral glucose metabolism rate (Occipital lobe cortex, non-focal side): ↓
Change in local cerebral glucose metabolism rate (Parietal lobe cortex, focal side): ↓
Change in local cerebral glucose metabolism rate (Parietal lobe cortex, non-focal side): ↓↓
Change in local cerebral glucose metabolism rate (Sensorimotor area cortex, focal side): →↓
Change in local cerebral glucose metabolism rate (Sensorimotor area cortex, non-focal side): ↓
Change in local cerebral glucose metabolism rate (Septal area, focal side): →↓
Change in local cerebral glucose metabolism rate (Septal area, non-focal side): →↓
Change in local cerebral glucose metabolism rate (Substantia nigra, focal side): →↓
Change in local cerebral glucose metabolism rate (Substantia nigra, non-focal side): →↓
Change in local cerebral glucose metabolism rate (Teniporal lobe cortex, focal side): →↓
Change in local cerebral glucose metabolism rate (Teniporal lobe cortex, non-focal side): ↓
Change in local cerebral glucose metabolism rate (Thalamus, focal side): →↓
Change in local cerebral glucose metabolism rate (Thalamus, non-focal side): ↓
Change in local cerebral glucose metabolism rate (hippocampus, focal side): ↓↓
Change in local cerebral glucose metabolism rate (hippocampus, non-focal side): ↓↓
